In patent US9567318B2, “Substituted pyrimidine compounds and uses thereof” (Memorial Sloan-Kettering Cancer Center, priority 2009, dated 2017):

Experiments:
[1] = test system: SKBr3 HER2+ breast cancer cells; test: Growth Inhibition Assay (Alamar blue), SKBr3; format: cell-based, human; settings: Homo sapiens, SK-BR-3, 72 h
Method: The IC50 values listed for some of these compounds illustrate the antiproliferative effects of the subject compounds and were obtained using the Growth Inhibition assays described herein.
Growth Inhibition Assay. Antiproliferative effects of inhibitors were evaluated using the dye Alamar blue. This reagent offers a rapid objective measure of cell viability in cell culture, and it uses the indicator dye resazurin to measure the metabolic capacity of cells, an indicator of cell viability. Briefly, cells were plated on Costar 96-well plates. For attached cells (such as SKBr3, MDA-MB-468, LNCaP, MRCS), 8,000 cells/well were used. For suspension cells (such as MOLM-13, Kasumi-1, OCI-Ly7, PBL), 20,000 cells/well were plated. Cells were allowed to incubate for 24 h at 37° C. before drug treatment. Drugs were added in triplicates at the indicated concentrations, and the plate was incubated for 72 h. Alamar Blue (440 μM) was added, and the plate read 6 h later using the Analyst GT (Fluorescence intensity mode, excitation 530 nm, emission 580 nm, with 560=dichroic mirror). Results were analyzed using the Softmax Pro software. The percentage cell growth inhibition was calculated by comparing fluorescence readings obtained from treated versus control cells, accounting for initial cell population (time zero).

[2] = test system: Hsp70s expressed in the MRC-5 cells; test: Hsp70 competition assay using YK55 beads, MRC-5 extracts; format: binding, human; settings: MRC-5 normal cell extracts
Method: (§1) FIG. 14. YK5 has a higher affinity for tumor Hsp70s and selectively kills cancer cells. (a-c) Cells were treated with the indicated concentrations of inhibitors for the times presented, and metabolically viable cells by Alamar blue uptake as described in Methods (a). Molecular markers of apoptosis (PARP and caspase-3 cleavage) were analyzed in cells treated for 24 h with indicated concentrations of inhibitors, by western blotting (b, c). Morphology of cells treated for 24 h with vehicle or the indicated inhibitors was analyzed by light microscopy (c). (d) Extracts (500 μg) were incubated overnight with beads containing D-biotin (75 μM) or the indicated concentrations of YK55 added to 50 μl streptavidin beads. HS=heat shocked. (e) SKBr3 (200 μg) and MRC-5 (400 μg) extracts and recombinant human Hsp70 (2 μg) were incubated for 3 h with the indicated concentrations with YK5, followed by precipitation of Hsp70 complexes on YK55-beads (50 μM YK55 added to 50 μl streptavidin beads). Data obtained from three independent experiments were graphed (right). Points, mean; bars, s.d.
(§2) In a second experiment, the ability of soluble YK5 to compete YK55-binding to normal and cancer cell Hsp70 species were tested (FIG. 14e). […] Interaction of YK5 was even weaker with recombinant human Hsp70 (FIG. 14e).
(§3) Hsp70 Competition Assay Using the YK55 Beads. […]

recombinant human Hsp70 = biological target: T1, recombinant human Hsp70 (Homo sapiens, UniProt P0DMV8); test: Hsp70 competition assay using YK55 beads, recombinant protein; format: binding; settings: compared with MRC-5 Hsp70s
T1 construct: purchased Stressgen
Method: as §1, §2, §3

359 kinases = test: Kinase screen (scanMAX, Ambit); format: binding
Method: FIG. 6. YK5 inhibits core biochemical functions of Hsp70s and disrupts the Hsp90/Hsp70 interaction. a) Refolding of denatured luciferase by Hsc70 and DJA2 at 30° C. was measured for the indicated times in the presence of YK5 (100 μM) or vehicle (left), or at 60 min in the presence of indicated concentrations of YK5 (right). b) Hsc70 ATPase rates were measured for reactions at 30° C. with the indicated combinations of Hsc70 and co-chaperones in the presence of vehicle (DMSO) or YK5 (100 μM). ADP production was monitored by thin layer chromatography separation of radiolabeled ADP from ATP and phosphorimaging analysis (lower). The data are consistent with those obtained from multiple repeat experiments (n≧2). c,d) SKBr3 cells were treated for 24 h with vehicle or indicated concentrations of YK5 (c) or for the indicated times with YK5 (10 μM) (d). Proteins isolated with anti-Hsp90 and Hsp70s antibodies (IP: Hsp90 or Hsp70), or present in the cell extract (Lysate) were analyzed by WB. […] Proteins were applied to a native gel and analyzed by immunoblotting. […]
Kinase Screen. […] The kinase concentration in the eluates was measured by qPCR. KINOMEscan's selectivity score (S) is a quantitative measure of compound selectivity. It is calculated by dividing the number of kinases that bind to the compound by the total number of distinct kinases tested, excluding mutant variants. […]

T1 sequence (P0DMV8 whole entry): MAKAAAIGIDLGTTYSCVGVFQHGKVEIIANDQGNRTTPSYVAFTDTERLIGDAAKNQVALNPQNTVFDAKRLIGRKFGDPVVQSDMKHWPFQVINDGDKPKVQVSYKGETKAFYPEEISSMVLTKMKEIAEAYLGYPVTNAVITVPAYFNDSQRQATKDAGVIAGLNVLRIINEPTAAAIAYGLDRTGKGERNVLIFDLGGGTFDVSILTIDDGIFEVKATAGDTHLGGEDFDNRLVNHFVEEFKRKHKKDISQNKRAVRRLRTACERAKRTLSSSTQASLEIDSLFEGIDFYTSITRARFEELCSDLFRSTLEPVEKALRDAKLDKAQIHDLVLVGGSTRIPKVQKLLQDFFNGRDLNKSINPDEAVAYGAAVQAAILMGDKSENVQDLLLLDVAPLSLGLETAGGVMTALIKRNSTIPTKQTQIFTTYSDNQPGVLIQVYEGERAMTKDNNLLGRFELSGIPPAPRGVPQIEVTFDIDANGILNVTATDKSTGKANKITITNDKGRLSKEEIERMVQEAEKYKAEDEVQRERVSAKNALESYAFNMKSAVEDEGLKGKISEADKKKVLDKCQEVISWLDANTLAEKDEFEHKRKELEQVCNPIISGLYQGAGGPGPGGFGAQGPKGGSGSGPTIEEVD

C=CC(=O)Nc1cc(N)nc(Sc2c(OC)nc(N3CCN(C)CC3)nc2OC)n1 [YK5, N-(6-amino-2-(4,6-dimethoxy-2-(4-methylpiperazin-1-yl)pyrimidin-5-ylthio)pyrimidin-4-yl)acrylamide]
IC50 [1]: 0.455 µM
concentration necessary to observe displacement of Hsp70s from YK55-beads [2]: exceeded 200 μM
interaction with recombinant human Hsp70 (recombinant human Hsp70): even weaker
activity against 359 kinases (359 kinases; 10 μM): inert
c-Met in the kinase screen (359 kinases; TREEspot interaction map): potential low affinity kinase hit
